Experimental data as given in publication PMC7395068, “The evolution of strategies to minimise the risk of human drug-induced liver injury (DILI) in drug discovery and development” (Archives of Toxicology, 2020).
Like-named read-outs stand apart in the source and are kept apart here.

Tests used:
[1] = plasma free fraction; cited from earlier work
[2] = system: HepG2 C3A spheroid, BSEP, Glu/Gal in HepG2 cells, bioactivation; settings: cited from earlier work
PHH = settings: cited from earlier work
human hepatocytes = settings: cited from earlier work
HepG2 cells [3] = settings: cited from earlier work
[4] = cited from earlier work; for DILI severity category (Chen 2016): human DILI classification, LTKB DILIrank
[5] = system: primary human hepatocytes, NIH3T3 fibroblasts, BSEP, CYP3A4; settings: cited from earlier work
[6] = cited from earlier work
HepG2 cells [7] = settings: cited from earlier work; remark: listed apart in the source
[8] = system: HepG2 cells, primary human hepatocytes; settings: In vitro Assay; ref Garside 2014; cited from earlier work
[9] = system: THLE-Null and THLE-3A4 cells; settings: In vitro Assay; ref Gustafsson 2014; cited from earlier work
[10] = read-out: Human plasma Cmax; total plasma Cmax.tot, median of 9 literature references; cited from earlier work
HepaRG spheroids = experiment: Combined HCI (HCS) and cellular ATP 3D assay in HepaRG spheroids; settings: for AC50 / minimal effective concentration: Homo sapiens
[11] = Plasma free fraction (fu) and unbound Cmax (Cmax,u); format: in vitro ADME, human; settings: unbound plasma Cmax
Experimental: The prediction of DILI severity was evaluated further using the 3D combined HCI assays using plasma-free fraction. The majority of fu values were obtained from literature, when unavailable in-house prediction was utilised. Unbound plasma Cmax concentrations (Cmax,u) were derived by multiplying total plasma Cmax with the corresponding free fraction (fu) for each compound.

hLiMTs [12] = settings: cited from earlier work
[13] = ref Chen 2011; cited from earlier work
rBsep = settings: In vitro Assay; ref Dawson 2012; cited from earlier work
hLiMTs [14] = experiment: Combined HCI (HCS) and cellular ATP 3D assay in hLiMTs; settings: for AC50 / minimal effective concentration: Homo sapiens
[15] = In vitro Assay, ref Proctor 2017
[16] = In vitro Assay, ref Persson 2013
[17] = In vitro Assay, ref Schadt 2015
[18] = Microtissue model structural based (HCI), combined HCS and ATP, MEC < 25 × Cmax.tot cut-off

For CCc1ccc(CCOc2ccc(CC3SC(=O)NC3=O)cc2)nc1 (stereo not shown) [pioglitazone, reference compound], the fu [1] is listed as 0.010, the “Bayesian Machine Learning DILI prediction, Williams (2019)” value ([2]; Bayesian modeling, ref Williams et al. 2019) is listed as “+VE” and the “Bayesian Machine Learning” value ([2]; In vitro Assay, ref Williams 2019) is listed as “+VE”. For the same molecule, the “PHH/100xCmax, Proctor (2017)” value (PHH; 2D PHH, ATP, IC50 < 100 × Cmax.tot, ref Proctor et al. 2017) was “-VE”, the “PHH/100uM, Proctor (2017)” value (PHH; 2D PHH, ATP, IC50 threshold 100 µM, ref Proctor et al. 2017) was “-VE” and the “PHH ATP <100uM” value (PHH; [15]) was “-VE”. For the same molecule, the “Structural based (HCI)” value (human hepatocytes; In vitro Assay, ref Xu 2008) was “-VE”, the “DILI in vitro assay prediction, Xu (2008)” value (human hepatocytes; Structural based (HCI), human hepatocytes, ref Xu et al. 2008) was “-VE” and the Cluser analysis (HepG2 cells [3]; [16]) was “-VE”. The “Structural based (HCI)” value (HepG2 cells [3]; [16]) was “+VE”, the “DILI in vitro assay prediction, Persson (2013)” value (HepG2 cells [3]; Structural based (HCI), HepG2, ref Persson et al. 2013) was “-VE” and the “DILI severity category (Chen et al. [2016])” value ([4]; LTKB DILIrank category, ref Chen et al. 2016) was “Less”. The “DILI severity category (Chen 2016)” value ([4]; ref Chen et al. 2016) was “Less”, the “DILI severity category (Chen 2016)” value ([4]; ref Chen et al. 2016, listed as Pioglitazone) was “Less DILI severity” and the DILI severity category ([4]; human DILI severity, ref Chen et al.) was “Less”. The “DILI +VE (5-8), DILI -VE (-4)” value ([4]; ref Chen 2016) was “+VE”, the DILI severity category ([4]; ref Chen 2016) was “vLess-DILI-Concern” and the “DILI in vitro assay prediction, Schadt (2015)” value ([5]; BSEP & Metabolism based, ref Schadt et al. 2015) was “+VE”. For the same molecule, the “Cellular toxicity (3T3 cells)” value [5, 17] was “-VE”, the “Combined Assay” value [5, 17] was “+VE” and the “GSH adduct HML” value [5, 17] was “-VE”. For the same molecule, the Hepatocyte cellular toxicity [5, 17] was “+VE”, the “MitoTox 3T3” value [5, 17] was “-VE” and the “TDI CYP3A4” value [5, 17] was “-VE”. The hBSEP inhibition [5, 17] was “+VE”, the “Assigned DILI category” value ([6]; Chen et al. 2016 or literature alignment, ref Chen et al. 2016) was 2 and the “In vivo DILI” value ([6]; […]) was “-VE”. For the same molecule, the “In vivo DILI” value ([6]; ref Dawson 2012) was “+VE”, the “In vivo DILI” value ([6]; ref Garside 2014) was “+VE” and the “in vivo DILI categorisation in the literature” value ([6]; ref Garside et al. 2014, Proctor et al. 2017, Gustafsson et al. 2014) was “in vivo DILI positive”. For the same molecule, the “In vivo DILI” value ([6]; ref Gustafsson 2014) was “+VE”, the “In vivo DILI” value ([6]; ref O'Brien 2006) was “-VE” and the “in vivo DILI categorisation in the literature” value ([6]; ref O'Brien et al. 2006, Xu et al. 2008, Dawson et al. 2012, Persson et al. 2013) was “non-DILI potential”. The “In vivo DILI” value ([6]; ref Persson 2013) was “-VE”, the “In vivo DILI” value ([6]; ref Proctor 2017) was “+VE” and the “In vivo DILI” value ([6]; ref Schadt 2015) was “+VE”. The “In vivo DILI” value ([6]; ref Williams 2019) was “+VE”, the “In vivo DILI” value ([6]; ref Xu 2008) was “-VE” and the “Structural based (HCI)” value (HepG2 cells [7]; In vitro Assay, ref O'Brien 2006) was “+VE”. For the same molecule, the “DILI in vitro assay prediction, O'Brien (2006)” value (HepG2 cells [7]; Structural based (HCI), HepG2, ref O'Brien et al. 2006) was “-VE”, the “Cluster 1-6 +VE Assay” value [8] was “+VE” and the THLE-Null [9] was “-VE”. The THLE-Null/3A4 [9] was “-VE”, the Cmax [10] was 2950 nM and the “HepaRG <25x Avg Cmax ATP” value (HepaRG spheroids; HepaRG, ATP endpoint, cut-off <25x Avg Cmax) was “+ve”. For the same molecule, the “HepaRG <100x Avg Cmaxu ATP” value (HepaRG spheroids; HepaRG, ATP endpoint, cut-off <100x Avg Cmaxu) was “-ve”, the “HepaRG <25x Avg Cmax HCS” value (HepaRG spheroids; HepaRG, HCS endpoints, cut-off <25x Avg Cmax) was “+ve” and the “HepaRG <100x Avg Cmaxu HCS” value (HepaRG spheroids; HepaRG, HCS endpoints, cut-off <100x Avg Cmaxu) was “-ve”. For the same molecule, the “HepaRG <25x Avg Cmax All” value (HepaRG spheroids; HepaRG, all endpoints (ATP and HCS), cut-off <25x Avg Cmax) was “+ve”, the “HepaRG Cmax max All” value (HepaRG spheroids; HepaRG, all endpoints, Cmax max used) was “+ve” and the “HepaRG Cmax min All” value (HepaRG spheroids; HepaRG, all endpoints, Cmax min used) was “+ve”. For the same molecule, the “HepaRG <10 uM All” value (HepaRG spheroids; HepaRG, all endpoints, cut-off <10 uM) was “-ve”, the “HepaRG <100x Avg Cmaxu All” value (HepaRG spheroids; HepaRG, all endpoints, cut-off <100x Avg Cmaxu) was “-ve” and the AC50 (HepaRG spheroids; HepaRG, read-out: ATP endpoint AC50) was 67.5 µM. It also gave a minimal effective concentration (HepaRG spheroids; HepaRG, read-out: ATP endpoint MEC) of 44.7 µM, an AC50 (HepaRG spheroids; HepaRG, read-out: HCS endpoint AC50) of 93.7 µM and a minimal effective concentration (HepaRG spheroids; HepaRG, read-out: HCS endpoint MEC) of 39.2 µM. The “DILI prediction HepaRG spheroids (HCS-MEC)” value (HepaRG spheroids; [18]) was “+VE (MEC < 25 × Cmax.tot cut-off)”, the “Human plasma Cmax,u” value [11] was 29 nM and the “hLiMTs ATP <100uM” value (hLiMTs [12]; [15]) was “-VE”. The “hLiMTs/100xCmax, Proctor (2017)” value (hLiMTs [12]; hLiMTs, ATP, IC50 < 100 × Cmax.tot, ref Proctor et al. 2017) was “-VE”, the “hLiMTs/100uM, Proctor (2017)” value (hLiMTs [12]; hLiMTs, ATP, IC50 threshold 100 µM, ref Proctor et al. 2017) was “-VE” and the “DILI Score (FDA) (1-8)” value [13] was 3. The “Inhibition of rBsep cutoff<1& cmax u>.2” value (rBsep) was “+VE”, the “Inhibition of rBsep cutoff<3” value (rBsep) was “+VE” and the AC50 (hLiMTs [14]; read-out: ATP endpoint AC50) was 106 µM. The minimal effective concentration (hLiMTs [14]; read-out: ATP endpoint MEC) was 38.1 µM, the AC50 (hLiMTs [14]; read-out: HCS endpoint AC50) was 9.95 µM and the minimal effective concentration (hLiMTs [14]; read-out: HCS endpoint MEC) was 5.35 µM. For the same molecule, the “DILI prediction hLiMTs (HCS-MEC)” value (hLiMTs [14]; [18]) was “+VE (MEC < 25 × Cmax.tot cut-off)”, the “hLiMTs <25x Avg Cmax ATP” value (hLiMTs [14]; hLiMTs, ATP endpoint, cut-off <25x Avg Cmax) was “+ve” and the “hLiMTs <100x Avg Cmaxu ATP” value (hLiMTs [14]; hLiMTs, ATP endpoint, cut-off <100x Avg Cmaxu) was “-ve”. For the same molecule, the “hLiMTs <25x Avg Cmax HCS” value (hLiMTs [14]; hLiMTs, HCS endpoints, cut-off <25x Avg Cmax) was “+ve”, the “hLiMTs <100x Avg Cmaxu HCS” value (hLiMTs [14]; hLiMTs, HCS endpoints, cut-off <100x Avg Cmaxu) was “-ve” and the “hLiMTs <25x Avg Cmax All” value (hLiMTs [14]; hLiMTs, all endpoints (ATP and HCS), cut-off <25x Avg Cmax) was “+ve”. For the same molecule, the “hLiMTs Cmax max All” value (hLiMTs [14]; hLiMTs, all endpoints, Cmax max used) was “+ve”, the “hLiMTs Cmax min All” value (hLiMTs [14]; hLiMTs, all endpoints, Cmax min used) was “+ve” and the “hLiMTs <10 uM All” value (hLiMTs [14]; hLiMTs, all endpoints, cut-off <10 uM) was “+ve (<10 uM)”. The “hLiMTs <100x Avg Cmaxu All” value (hLiMTs [14]; hLiMTs, all endpoints, cut-off <100x Avg Cmaxu) was “-ve”.
